From patent US7855076B2, “Use of discoidin domain receptor 1 (DDR1) and agents that affect the DDR1/collagen pathway” (The United States of America as represented by the …, priority 2002, dated 2010)

How the values were obtained:
Type in all cases: cell-based, human
DDR1 mRNA = DDR1 mRNA expression in PBMC by Northern blotting; conditions: 8 hours, TNF-α 5 ng/ml, IL-1β 10 ng/ml, IFN-γ 50 U/ml, GM-CSF 10 ng/ml, LPS 1 μg/ml, PHA 5 μg/ml
Protocol: PMN and PBMC were maintained at a density of 5×10^6 cells/ml in the complete medium in six-well tissue culture cluster (Coster, Cambridge, Mass.; 3 ml/well). Total RNA was extracted from each culture by using TRIZOL® Reagent. PolyA mRNA was purified on Oligotex columns (Qiagen, Valencia, Calif.). Northern blot analysis was performed as described (Yoshimura, J. Immunol. 150:5025, 1993), except that ULTRAhyb (Ambion) was used. A human DDR1 cDNA (757-bp) was obtained by PCR from a U-105 human glioblastoma cell line cDNA library and was ligated into the EcoRI/HindIII site of the pBluescript (Stratagene, La Jolla, Calif.). The sense primer was 5′-[…]-3′ (SEQ ID NO: 2; corresponding to residues between 68 and 87 in the nucleotide sequence of the trkE cDNA, GenBank accession number X74979) and the antisense primer was 5′-[…]-3′ (SEQ ID NO: 3; corresponding to residues between 805 and 824 in the nucleotide sequence of the trkE cDNA).
Freshly isolated PBMC expressed only a low level of DDR1 mRNA. The expression level was increased about eightfold when the cells were incubated in either RPMI 1640 or RPMI 1640 containing 10% FCS.

THP-1 cells = assay: Adherence of THP-1 cells to coated plates; conditions: DDR1a- or DDR1b-overexpressing THP-1 cells, 30 minutes
Protocol: 5×10^5 cells/ml were cultured on either BSA (10 mg/ml)- or collagen (20 μg/ml) and BSA-coated plates for 30 (FIG. 2A) or 120 minutes (FIG. 2B) at 37° C. in a 5% CO2 humidified incubator. Normal mouse IgG or anti-β1 integrin blocking IgG was added to measure the effect of β1 integrin in the assay. The number of adherent cells in each 400× visual field was counted. The results are presented as means ±SE of four individual fields. Data are representative of three experiments with two independent clones overexpressing either DDR1a or DDR1b.
To determine the effects of collagen on the functions of DDR1a- and DDR1b-overexpressing THP-1 cells, the cells were incubated on collagen-coated plastic plates. Twenty-four-well plates were coated with 100 μl/well human collagen type I (20 μg/ml) overnight at 4° C., and then with 200 μl/well 10 mg/ml bovine serum albumin (BSA) for 1 hour at 37° C. Cells were plated at the cell density of 1×10^5 cells/ml to the coated wells and were incubated for 30 minutes at 37° C. in 5% CO2 humidified atmosphere. Nonadherent cells were removed by washing three times with PBS. Cells that remained on the coated surface were considered to be adherent, and the number of cells in each 400 field was counted. Results were presented as mean ±SE per 400 field.

MCP-1 mRNA = MCP-1 mRNA expression in PMA-treated THP-1 cells by Northern blotting
Protocol: The effect of collagen-activation on the expression of MCP-1 mRNA in PMA-treated parental, mock-transduced, DDR1a-overexpressing, and DDR1b-overexpressing THP-1 cells was measured by Northern blotting. THP-1 cells were cultured at the cell density of 5×10^6, cells/ml in the complete medium in the presence of 10 nM PMA in 6 well tissue culture plates that were either uncoated or collagen-coated. Total RNA was extracted from each culture by using TRIZOL reagent® and Northern blot analysis was performed as described (Yoshimura, J. Immunol. 150:5025, 1993). IL-1β cDNA was obtained by RT-PCR from a human monocyte cDNA library using the following primer pair: sense primer 5′-[…]-3′ (SEQ ID NO: 13) and anti-sense primer 5′-[…]-3′ (SEQ ID NO: 14). Each cDNA was labeled with [α-^32P]dCTP using Rediprime™ II random prime labeling system (Amersham Pharmacia Biotech).

PMN = assay: MCP-1 release by PMN (neutrophils), ELISA
Protocol: Human PMN and peripheral blood mononuclear cells (PBMC) were obtained from heparinized blood from human donors (10 units of heparin per ml of blood). One volume of 5% dextran (T-500 Pharmacia, Piscataway, N.J.) in phosphate buffered saline (PBS) was added to three volumes of blood in 50 ml polypropylene tubes. After a 40 minute incubation at room temperature, the leukocyte-rich plasma layer was removed and overlaid onto Lymphoprep in 50 ml tubes and the tubes were centrifuged at 800×g for 20 minutes at room temperature. PMN were separated from erythrocytes by lysis in 0.2% NaCl, washed in complete medium three times at 4° C. and resuspended in complete medium. PBMC contained in the PMN preparations obtained by this method were less than 0.5% by morphologic examination. Cell viability was higher than 98% by trypan blue staining.
A panel of cytokines was previously tested for their ability to induce MCP-1 production in PMN and it was reported that TNF-α and IFN-γ could cooperate to induce a high level of MCP-1 production (Yamashiro et al., J. Leukoc. Biol. 69:698, 2001). […] The majority of MCP-1 was released between 24 hours and 48 hours, showing a delayed kinetics of MCP-1 release. […] The effect of IFN-γ was dose-dependent.
To confirm that activation of DDR1 was responsible for the increased release of MCP-1 by PMN treated with IFN-γ and collagen, 513 anti-DDR1 Ab was used instead of collagen. The concentrations of MCP-1 were measured in the Lymphokine Testing Laboratory, Clinical Services Program, SAIC-Frederick (Frederick, Md.) with an ELISA kit (R&D Systems) specific for human MCP-1.

Substance | level of DDR1 mRNA expression (DDR1 mRNA) | cells adhered to collagen-coated plates (THP-1 cells) | level of MCP-1 mRNA expression (MCP-1 mRNA; PMA-treated DDR1b-overexpressing cells on collagen-coated plates) | MCP-1 mRNA expression (MCP-1 mRNA; PMA-treated parental cells) | effect on MCP-1 production (PMN; GM-CSF-treated PMN) | effect on MCP-1 production (PMN; PMN treated with TNF-α plus IFN-γ or INF-α plus IFN-γ plus GM-CSF) | effect on MCP-1 production (PMN; PMN, no cytokine or TNF-α added)
TNF-α | further augmented | – | – | – | – | – | –
collagen | – | ~62 % of total cells | rapidly up-regulated | no effect | no significant effect | negative effect | no significant effect
